Paper PMC11409218, “Metal(triphenylphosphine)-atovaquone Complexes: Synthesis, Antimalarial Activity, and Suppression of Heme Detoxification” (Inorganic Chemistry, 2024)
Like-named read-outs stand apart in the source and are kept apart here.

Tests used:
J774 cells = experiment: Cytotoxicity in mammalian cells (CellTiter-Glo), J774; assay type: cell-based; details: J774 murine macrophage line; 72 h drug incubation; mean of three experiments; read-out: mammalian cells CC50 (±SEM), J774
Description: (§1) Cell lines J774 and HepG2 were incubated with the drug for 72 h, the same time frame as employed to determine antimalarial activity. Cytotoxicity was evaluated in parallel with ATV as a representative parental drug, while doxorubicin was used as a standard cytotoxic drug. These experiments were also used to estimate the in vitro selectivity index (Table 2).
(§2) Doxorubicin chloridrate (Eurofarma, São Paulo, Brazil) was used as a positive control, while untreated cells were employed as negative controls. Bioluminescence readings were performed using a Filtermax F5Multi-Mode instrument (Molecular Devices, Sunnyvale, CA) using the CellTiter-Glo kit (Promega Corporation, Madison, USA). Three independent experiments were performed and CC50 values were calculated.

[1] = test system: P. falciparum W2 (CQ-resistant strain); experiment: Antiplasmodial activity, asexual blood stages, HRP2 ELISA-based assay, W2 strain; assay type: cell-based, Plasmodium falciparum; details: read-out: P. falciparum IC50 (±SEM), W2
Description: The potency of the metal complexes to inhibit parasite growth was also examined in comparison with ATV.
The two strains were synchronized twice with sorbitol before use,[69] and clonality was verified every 15 days through PCR genotyping of the polymorphic genetic markers msp1 and msp2 and microsatellite loci.[70],[71] Compounds were resuspended in DMSO and then diluted in RPMI-DMSO (99v/1v) to obtain final concentrations ranging from 0.25 to 20000 nM.
After freezing and then thawing, the hemolyzed cultures were homogenized by vortexing the plates. The drug susceptibility assay was performed using the HRP2 ELISA-based assay of the Malaria Ag Celisa kit (ref KM2159, Cellabs PTY LDT, Brookvale, Australia), as described previously.[72]

[2] = test system: P. falciparum 3D7 (CQ-susceptible strain); experiment: Antiplasmodial activity, asexual blood stages, HRP2 ELISA-based assay, 3D7 strain; assay type: cell-based, Plasmodium falciparum; details: read-out: P. falciparum IC50 (±SEM), 3D7
Source text: We determined the half-maximal inhibitory concentration (IC50) of the complexes against asexual blood stages of P. falciparum using CQ-susceptible and CQ-resistant strains (Table 2). […]. Two strains were selected for the tests: the CQ-susceptible 3D7 strain (isolated in West Africa; obtained from MR4, VA, USA), and the CQ-resistant W2 strain (isolated in Indochina; obtained from MR4, VA, USA). Both were maintained in culture in RPMI 1640 (Invitrogen, Paisley, UK), supplemented with 10% human serum (Abcys S.A. Paris, France), and buffered with 25 mM HEPES and 25 mM NaHCO3. Parasites were grown in A-positive human blood (Etablissement Français du Sang, Marseille, France) in controlled atmospheric conditions that consisted of 10% O2, 5% CO2, and 85% N2 at 37 °C with 95% humidity. […]
For in vitro isotopic microtests, 25 μL/well of antimalarial drug and 200 μL/well of parasitized red blood cell suspension (final parasitemia 0.5%, final hematocrit 1.5%) were distributed into 96-well plates. The plates were incubated for 72 h at 37 °C in 85% N2, 10% O2, 5% CO2. After freezing and then thawing, the hemolyzed cultures were homogenized by vortexing the plates. The drug susceptibility assay was performed using the HRP2 ELISA-based assay of the Malaria Ag Celisa kit (ref KM2159, Cellabs PTY LDT, Brookvale, Australia), as described previously.[72] […] […]. IC50 are expressed as means of at least 5 to 7 independent experiments.

[3] = test system: β-hematin crystal formation; experiment: β-Hematin crystal formation by FTIR spectroscopy; assay type: biochemical; details: acid-buffered medium pH 5; 1:3 hematin/compound ratio
Description: The ability of these compounds to inhibit the formation of β-hematin crystals was investigated by IR spectroscopy (Figure 2f). Of note, β-hematin crystal formation was assayed in an acid-buffered medium, while hemin titration was assayed at neutral pH. […]. For both ATV and complexes 1–3, there may have been overlapping between a decrease in the (C = O) band of heme species and a (C = O) band of quinone. However, there was no danger of overlaps in the (C–O) band of heme species at 1210 cm^–1, since these species are absent from the drugs.
The conversion of hematin into β-hematin crystals was determined by FTIR spectroscopy as described previously.[52] In a microtube, 20 mg hemin and three equivalents of the compounds were dissolved in 3 mL 0.1 M NaOH solution and stirred for 30 min at 60 °C. Then, 0.3 mL 0.1 M HCl and 1.7 mL sodium acetate buffer (10 M, pH 5) were added at the same temperature. […] After incubation for 120 min, the reaction mixture was cooled on ice for 10 min and then centrifuged and washed with water to remove salts. Resulting crystals were dried and IR spectra were obtained using ATR mode.[66]−[68]

[4] = Interaction with ferriprotoporphyrin IX, spectroscopic titration of Soret band at 402 nm; assay type: binding; details: pH 7.4; 40% aqueous DMSO; 1:1 complexation model; mean and SEM of three experiments
Description: The association constants (Log K) of the compounds with hemin were determined at pH 7.4 using a 1:1 complexation model with the equation proposed by Egan et al.[52] for the nonlinear least-squares fitting (Figure 2, Table 2).
Following a procedure described in the literature,[52] the association constant (Log K) of the drugs with ferriprotoporphyrin IX was determined in 40% aqueous DMSO. A stock solution of hemin chloride was prepared by adding 3.5 mg hemin to 10 mL DMSO and adjusted to pH 7.5. A working solution of hemin in 40% DMSO was further prepared by mixing 140 μL hemin stock solution, 5 mL distilled water, 3.86 mL DMSO, and 1 mL 0.2 M Tris (tris(hydroxymethyl)aminomethane) buffer. Aliquots of compounds were added to this working hemin solution. Blank solutions containing only hemin or compounds were prepared to subtract the absorbance of the compounds. […] Binding affinity was determined using the equation A = (A0 + A∞K[C])/(1 + K[C]) for a 1:1 complexation model using nonlinear least-squares fitting, where A0 is the absorbance of Fe(III)PPIX, A∞ is the absorbance of the compound–hemin adduct at saturation, and K is the association constant. Three independent experiments were performed.

[5] = Cytotoxicity in mammalian cells (CellTiter-Glo), J774; assay type: cell-based; details: mouse, J774 macrophage cells; J774 murine macrophage line; 72 h drug incubation; mean of three experiments; read-out: mammalian cells CC50 (±SEM), J774
Description: as §1, §2

[6] = Cytotoxicity in mammalian cells (CellTiter-Glo), HepG2; assay type: cell-based; details: HepG2 hepatocellular carcinoma cells; HepG2 human hepatocellular carcinoma line; 72 h drug incubation; mean of three experiments; read-out: mammalian cells CC50 (±SEM), HepG2
Description: as §1, §2

[7] = CQ-resistant W2 strain, 72 h drug incubation, mean of five to seven experiments
[8] = CQ-susceptible 3D7 strain, 72 h drug incubation, mean of five to seven experiments

| Compound | CC50 (J774 cells) [nM] | IC50 [1, 7] [nM] | IC50 [2, 8] [nM] | also measured |
| --- | --- | --- | --- | --- |
| [Cl][Au].c1ccc(P(c2ccccc2)c2ccccc2)cc1 [AuClPPh3, [Au(PPh3)Cl]] | 4100 ± 800 | 3290 ± 629 | 1430 ± 309 |  |
| CCN(CC)CCCC(C)Nc1ccnc2cc(Cl)ccc12 (stereo not drawn) [CQ, chloroquine] |  |  |  | IC50 ([1]; Plasmodium falciparum, W2, 72 h): 526 ± 126 nM; inhibition of β-hematin crystal formation (IR bands 1663 and 1210 cm^–1) [3]: decreased simultaneously in these two bands; IC50 ([2]; Plasmodium falciparum, 3D7, 72 h): 23.8 ± 5.5 nM; log K (association constant of drug binding to hemin) [4]: 4.78 ± 0.01 |
| COc1cccc2c1C(=O)c1c(O)c3c(c(O)c1C2=O)C[C@@](O)(C(=O)CO)C[C@@H]3O[C@H]1C[C@H](N)[C@H](O)[C@H](C)O1 [DOX, Doxorubicin, reference compound] |  |  |  | CC50 at 72 h [5]: 440 ± 310 nM; CC50 at 72 h [6]: < 120 nM |
| O=[N+]([O-])[O-].[Cu+].c1ccc(P(c2ccccc2)c2ccccc2)cc1.c1ccc(P(c2ccccc2)c2ccccc2)cc1 [[Cu(PPh3)2NO3]] | > 80000 | > 20000 | > 20000 |  |
